Measured values from patent US11434212B2, “Bicyclic compound as a caspase inhibitor” (CHIA TAI TIANQING PHARMACEUTICAL GROUP CO., LTD., priority 2017, dated 2022).

Tests used:
Format in all cases: biochemical
Conditions in all cases: fluorogenic substrate 50 μM; test concentrations 1000 nM to 0.32 nM
Caspase-3 = target: T1, Caspase-3 (Homo sapiens, UniProt P42574); assay: In vitro inhibitory activity on Caspase-3 (BioVision Caspase-3 Inhibitor Screening Kit)
T1 construct: purchased BioVision K153-100
T1 sequence (P42574 29-175 limits assumed): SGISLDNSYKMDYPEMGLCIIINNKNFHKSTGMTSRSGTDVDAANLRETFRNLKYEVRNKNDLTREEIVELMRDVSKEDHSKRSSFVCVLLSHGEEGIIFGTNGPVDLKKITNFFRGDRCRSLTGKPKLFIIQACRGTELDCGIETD
T1 sequence (P42574 176-277 limits assumed): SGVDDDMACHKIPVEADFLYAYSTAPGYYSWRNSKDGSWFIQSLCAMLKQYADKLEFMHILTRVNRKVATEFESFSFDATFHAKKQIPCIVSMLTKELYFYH
Method: (§1) Caspase Inhibitor Screening Kit for BioVision was used in this experiment to test the inhibitory activity of the test compounds on Caspase.
Caspase-3 Inhibitor Screening Kit (BioVision #K153-100)
(§2) Note: Each caspase enzymatic experiment uses the reagents in corresponding kit thereof. Each enzyme was dissolved in 550 μl of the corresponding 2× reaction buffer, sub-packed and stored at −80° C., respectively.
(§3) 1) The compound was diluted to a 200*test concentration with DMSO via the multiple dilution, then to a 2*test concentration with ddH2O, and added to a 384-well experimental plate at 12.5 μl per well. Test compounds and control compounds were tested at 6 concentration points, test concentrations ranging from 1000 nM to 0.32 nM. The ddH2O containing 1% DMSO was added to the 0% inhibition control well, and a high concentration of the control compound was added to the 100% inhibition control well (final concentration: 5 μM).
(§4) 2) 2× reaction buffer containing 10 mM DTT was prepared. The enzyme caspase stock solution was diluted 5-fold with 2× reaction buffer containing 10 mM DTT and added to a 384-well experimental plate at 6.25 μl per well. After being mixed, the enzyme and compounds were incubated at 37° C. for 30 minutes.
(§5) 3) The fluorogenic substrate of the enzyme caspase was diluted 5-fold with 2× reaction buffer containing 10 mM DTT, and then added to a 384-well experimental plate at 6.25 μl per well. The total reaction volume was 25 μl, the final concentration of the substrate was 50 μM, and the final concentration of DMSO was 0.5%. After the substrate was added, the 384-well experimental plate was incubated at 37° C. for 30 minutes.
(§6) 4) The fluorescence intensity (excitation light wavelength was 400 nm, emission light wavelength was 505 nm) was measured by using a multi-function microplate reader. Fluorescence intensity was used to calculate the inhibitory effect of the compounds on Caspase. GraphPad Prism software was used for fitting compound inhibition curves and calculating IC50 values.

Caspase-1 = target: T2, Caspase-1 (Homo sapiens, UniProt P29466); assay: In vitro inhibitory activity on Caspase-1 (BioVision Caspase-1 Inhibitor Screening Kit)
T2 construct: purchased BioVision K151-100
T2 sequence (P29466 120-297 limits assumed): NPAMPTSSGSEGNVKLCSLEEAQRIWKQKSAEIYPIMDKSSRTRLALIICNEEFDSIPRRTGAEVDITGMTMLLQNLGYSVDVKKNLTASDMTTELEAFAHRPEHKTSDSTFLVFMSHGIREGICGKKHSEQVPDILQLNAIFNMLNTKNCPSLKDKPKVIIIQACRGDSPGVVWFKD
T2 sequence (P29466 317-404 limits assumed): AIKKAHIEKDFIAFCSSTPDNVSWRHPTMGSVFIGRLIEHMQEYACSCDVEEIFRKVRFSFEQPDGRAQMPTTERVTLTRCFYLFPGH
Method: as §1
Caspase-1 Inhibitor Screening Kit (BioVision #K151-100)
as §2, §3, §4, §5, §6

Caspase-8 = target: T3, Caspase-8 (Homo sapiens, UniProt Q14790); assay: In vitro inhibitory activity on Caspase-8 (BioVision Caspase-8 Inhibitor Screening Kit)
T3 construct: purchased BioVision K158-100
T3 sequence (Q14790 217-374 limits assumed): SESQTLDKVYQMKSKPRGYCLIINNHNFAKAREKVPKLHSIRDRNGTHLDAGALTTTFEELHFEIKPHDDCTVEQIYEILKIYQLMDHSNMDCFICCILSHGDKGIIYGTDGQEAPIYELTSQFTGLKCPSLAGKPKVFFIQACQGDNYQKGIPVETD
T3 sequence (Q14790 385-479 limits assumed): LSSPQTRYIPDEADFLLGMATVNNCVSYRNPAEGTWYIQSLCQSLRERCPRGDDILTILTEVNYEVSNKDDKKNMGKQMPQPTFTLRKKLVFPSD
Method: as §1
Caspase-8 Inhibitor Screening Kit (BioVision #K158-100)
as §2, §3, §4, §5, §6

SMILES	IC50 (Caspase-3) [nM]	IC50 (Caspase-1) [nM]	IC50 (Caspase-8) [nM]
C[C@H](NC(=O)c1cc(-c2ccccc2Cl)no1)C(=O)N[C@@H](CC(=O)O)C(=O)COc1c(F)c(F)cc(F)c1F [Example 17]	9.5	4.2	31.4
C[C@H](NC(=O)c1cc(-c2ccccc2Cl)on1)C(=O)N[C@H](CC(=O)O)C(=O)COc1c(F)c(F)cc(F)c1F [Example 18]	26.1	7.5	62.1
